These results are taken from PubChem BioAssay AID1259407 (Chemical Carcinogenesis Research Information System (CCRIS), 2018).

The test system of the data set is CCRIS mutagenicity, Ames/micronucleus/aberration tests. The data set is described as follows: CCRIS mutagenicity studies.
[1] abbreviates: Test System: AMES SALMONELLA TYPHIMURIUM, Strain/Indicator: TA100, Metabolic Activation: NONE, Method: PREINCUBATION
The mark [2] stands for this setting: Test System: AMES SALMONELLA TYPHIMURIUM, Strain/Indicator: TA100, Metabolic Activation: NONE, Method: STANDARD PLATE.
Where [3] appears, read: Test System: AMES SALMONELLA TYPHIMURIUM, Strain/Indicator: TA1537, Metabolic Activation: NONE, Method: STANDARD PLATE.

Activity calls are given as the source filed them. How the calls were made is not given here.

As to `CCOc1ccc(NC(C)=O)cc1`, the mutagenic call by setting is: (End Point: IN VITRO MICRONUCLEUS, Test System: CHL/IU CELLS, Metabolic Activation: RAT, LIVER, S-9, PHENOBARBITAL AND 5,6-BENZOFLAVONE) “inactive; negative”; (End Point: IN VITRO MICRONUCLEUS, Test System: RAT KIDNEY FIBROBLAST NRK-49F, Metabolic Activation: NONE) “inactive; negative”; (Test System: AMES SALMONELLA TYPHIMURIUM, Strain/Indicator: TA98, Metabolic Activation: GUINEA PIG, LIVER, S-9, PCB, Method: PREINCUBATION) “inactive; negative”; (Test System: AMES SALMONELLA TYPHIMURIUM, Strain/Indicator: TA98, Metabolic Activation: HAMSTER, LIVER, S-9, AROCLOR 1254, Method: STANDARD PLATE) “inactive; negative”; (Test System: AMES SALMONELLA TYPHIMURIUM, Strain/Indicator: TA98, Metabolic Activation: HAMSTER, LIVER, S-9, PCB, Method: PREINCUBATION) “inactive; negative”; (Test System: AMES SALMONELLA TYPHIMURIUM, Strain/Indicator: TA98, Metabolic Activation: MOUSE, LIVER, S-9, AROCLOR 1254, Method: STANDARD PLATE) “inactive; negative”. For the same molecule, the mutagenic call was “inactive; negative” (Test System: AMES SALMONELLA TYPHIMURIUM, Strain/Indicator: TA98, Metabolic Activation: MOUSE, LIVER, S-9, PCB, Method: PREINCUBATION); “inactive; negative” (Test System: AMES SALMONELLA TYPHIMURIUM, Strain/Indicator: TA98, Metabolic Activation: NONE, Method: PREINCUBATION); “inactive; negative” (Test System: AMES SALMONELLA TYPHIMURIUM, Strain/Indicator: TA98, Metabolic Activation: NONE, Method: STANDARD PLATE); “inactive; negative” (Test System: AMES SALMONELLA TYPHIMURIUM, Strain/Indicator: TA98, Metabolic Activation: RAT, LIVER, S-9, AROCLOR 1254, Method: STANDARD PLATE); “inactive; negative” (Test System: AMES SALMONELLA TYPHIMURIUM, Strain/Indicator: TA98, Metabolic Activation: RAT, LIVER, S-9, PCB, Method: PREINCUBATION); “active; positive” (Test System: AMES SALMONELLA TYPHIMURIUM, Strain/Indicator: TA100, Metabolic Activation: GUINEA PIG, LIVER, S-9, PCB, Method: PREINCUBATION). In addition, the mutagenic call is, setting by setting: (Test System: AMES SALMONELLA TYPHIMURIUM, Strain/Indicator: TA100, Metabolic Activation: HAMSTER, LIVER, S-9, AROCLOR 1254, Method: STANDARD PLATE) “active; positive”; (Test System: AMES SALMONELLA TYPHIMURIUM, Strain/Indicator: TA100, Metabolic Activation: HAMSTER, LIVER, S-9, KANECHLOR 400, Method: PREINCUBATION) “active; positive”; (Test System: AMES SALMONELLA TYPHIMURIUM, Strain/Indicator: TA100, Metabolic Activation: HAMSTER, LIVER, S-9, PCB, Method: PREINCUBATION) “active; positive”; (Test System: AMES SALMONELLA TYPHIMURIUM, Strain/Indicator: TA100, Metabolic Activation: HAMSTER, LIVER, S-9, Method: PREINCUBATION) “inactive; negative”; (Test System: AMES SALMONELLA TYPHIMURIUM, Strain/Indicator: TA100, Metabolic Activation: MOUSE, LIVER, S-9, AROCLOR 1254, Method: STANDARD PLATE) “inactive; negative”; (Test System: AMES SALMONELLA TYPHIMURIUM, Strain/Indicator: TA100, Metabolic Activation: MOUSE, LIVER, S-9, PCB, Method: PREINCUBATION) “inactive; negative”. Further, the mutagenic call is, setting by setting: under setting [1], “inactive; negative”; under setting [2], “inactive; negative”; (Test System: AMES SALMONELLA TYPHIMURIUM, Strain/Indicator: TA100, Metabolic Activation: RAT, LIVER, S-9, AROCLOR 1254, Method: STANDARD PLATE) “inactive; negative”; (Test System: AMES SALMONELLA TYPHIMURIUM, Strain/Indicator: TA100, Metabolic Activation: RAT, LIVER, S-9, KANECHLOR 400, Method: PREINCUBATION) “inactive; negative”; (Test System: AMES SALMONELLA TYPHIMURIUM, Strain/Indicator: TA100, Metabolic Activation: RAT, LIVER, S-9, PCB, Method: PREINCUBATION) “inactive; negative”; (Test System: AMES SALMONELLA TYPHIMURIUM, Strain/Indicator: TA100, Metabolic Activation: RAT, LIVER, S-9, Method: PREINCUBATION) “inactive; negative”. In addition, the mutagenic call is, setting by setting: (Test System: AMES SALMONELLA TYPHIMURIUM, Strain/Indicator: TA1535, Metabolic Activation: HAMSTER, LIVER, S-9, AROCLOR 1254, Method: STANDARD PLATE) “inactive; negative”; (Test System: AMES SALMONELLA TYPHIMURIUM, Strain/Indicator: TA1535, Metabolic Activation: MOUSE, LIVER, S-9, AROCLOR 1254, Method: STANDARD PLATE) “inactive; negative”; (Test System: AMES SALMONELLA TYPHIMURIUM, Strain/Indicator: TA1535, Metabolic Activation: NONE, Method: STANDARD PLATE) “inactive; negative”; (Test System: AMES SALMONELLA TYPHIMURIUM, Strain/Indicator: TA1535, Metabolic Activation: RAT, LIVER, S-9, AROCLOR 1254, Method: STANDARD PLATE) “inactive; negative”; (Test System: AMES SALMONELLA TYPHIMURIUM, Strain/Indicator: TA1537, Metabolic Activation: HAMSTER, LIVER, S-9, AROCLOR 1254, Method: STANDARD PLATE) “inactive; negative”; (Test System: AMES SALMONELLA TYPHIMURIUM, Strain/Indicator: TA1537, Metabolic Activation: MOUSE, LIVER, S-9, AROCLOR 1254, Method: STANDARD PLATE) “inactive; negative”. Also, the mutagenic call runs as follows: under setting [3], “inactive; negative”; (Test System: AMES SALMONELLA TYPHIMURIUM, Strain/Indicator: TA1537, Metabolic Activation: RAT, LIVER, S-9, AROCLOR 1254, Method: STANDARD PLATE) “inactive; negative”; (Test System: AMES SALMONELLA TYPHIMURIUM, Strain/Indicator: TA1538, Metabolic Activation: HAMSTER, LIVER, S-9, AROCLOR 1254, Method: STANDARD PLATE) “inactive; negative”; (Test System: AMES SALMONELLA TYPHIMURIUM, Strain/Indicator: TA1538, Metabolic Activation: MOUSE, LIVER, S-9, AROCLOR 1254, Method: STANDARD PLATE) “inactive; negative”; (Test System: AMES SALMONELLA TYPHIMURIUM, Strain/Indicator: TA1538, Metabolic Activation: NONE, Method: STANDARD PLATE) “inactive; negative”; (Test System: AMES SALMONELLA TYPHIMURIUM, Strain/Indicator: TA1538, Metabolic Activation: RAT, LIVER, S-9, AROCLOR 1254, Method: STANDARD PLATE) “inactive; negative”. In addition, the mutagenic call is “active; positive” (Test System: CHINESE HAMSTER V-79, Strain/Indicator: V-79/6-THIOGUANINE, Metabolic Activation: HAMSTER, LIVER, S-9, AROCLOR 1254, Method: SUSPENSION/PLATE); “inactive; negative” (Test System: CHINESE HAMSTER V-79, Strain/Indicator: V-79/6-THIOGUANINE, Metabolic Activation: NONE, Method: SUSPENSION/PLATE); “inactive; negative” (Test System: CHINESE HAMSTER V-79, Strain/Indicator: V-79/6-THIOGUANINE, Metabolic Activation: RAT, LIVER, S-9, PHENOBARBITAL AND BETA-NAPHTHOFLAVONE, Method: SUSPENSION/PLATE); “inactive; negative” (Test System: E. COLI, Strain/Indicator: WP2 UVRA, Metabolic Activation: HAMSTER, LIVER, S-9, AROCLOR 1254, Method: STANDARD PLATE); “inactive; negative” (Test System: E. COLI, Strain/Indicator: WP2 UVRA, Metabolic Activation: HAMSTER, LIVER, S-9, Method: STANDARD PLATE); “inactive; negative” (Test System: E. COLI, Strain/Indicator: WP2 UVRA, Metabolic Activation: MOUSE, LIVER, S-9, AROCLOR 1254, Method: STANDARD PLATE). Besides, the mutagenic call is, setting by setting: (Test System: E. COLI, Strain/Indicator: WP2 UVRA, Metabolic Activation: MOUSE, LIVER, S-9, Method: STANDARD PLATE) “inactive; negative”; (Test System: E. COLI, Strain/Indicator: WP2 UVRA, Metabolic Activation: NONE, Method: STANDARD PLATE) “inactive; negative”; (Test System: E. COLI, Strain/Indicator: WP2 UVRA, Metabolic Activation: RAT, LIVER, S-9, AROCLOR 1254, Method: STANDARD PLATE) “inactive; negative”; (Test System: E. COLI, Strain/Indicator: WP2 UVRA, Metabolic Activation: RAT, LIVER, S-9, Method: STANDARD PLATE) “inactive; negative”.
For `CN(C)CCNC(=O)c1cccc2oc(-c3ccccc3)nc12`, the mutagenic call under setting [3] is “inactive; negative”.
Turning to `Cc1cccc2c1cc(C)c1c3c(ccc12)C(O)C(O)C1OC31` (centres undefined), the mutagenic call runs as follows: under setting [1], “active; positive”; under setting [2], “active; positive”.
